The assay has as its target T1, GST-tagged ROR gamma ligand binding domain (LBD) (Homo sapiens, UniProt P51449).
T1 construct: purchased Invitrogen
T1 sequence (P51449 269-508 limits assumed): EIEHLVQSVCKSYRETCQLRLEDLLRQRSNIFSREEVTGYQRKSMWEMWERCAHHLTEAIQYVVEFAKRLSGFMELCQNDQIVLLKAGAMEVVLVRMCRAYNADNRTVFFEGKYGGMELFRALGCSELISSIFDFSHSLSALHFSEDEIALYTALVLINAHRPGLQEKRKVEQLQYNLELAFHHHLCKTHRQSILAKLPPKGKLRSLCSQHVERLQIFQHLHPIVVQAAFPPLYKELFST
Briefly: TR-FRET assay for ROR gamma (LanthaScreen co-activator peptide recruitment). The assay is classed as biochemical. As to conditions: for inhibition at 1 µM: compound concentration 1 μM; for inhibition at 1 µM / inhibition at 10 µM: TR-FRET ratio 520/495, percent of control; for inhibition at 10 µM: compound concentration 10 μM; for IC50: from dose response curve, nonlinear regression, read-out: IC50 range. In a few lines: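 Antagonist-mode co-activator recruitment: 10 nM GST-RORγ LBD with compound (4% DMSO final) in 25 mM HEPES pH 7.4, 100 mM NaCl, 5 mM DTT, 0.01% BSA, 1 h at 22° C.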

We go through five molecules from patent US10344024B2, “Compounds as ROR gamma modulators” (Glenmark Pharmaceuticals S.A., priority 2015, dated 2019).

Turning to `CCC(F)(F)c1ccc(CC(=O)Nc2ccc(-c3nccnc3N(C)[C@H](C)c3ccccc3)cc2)cc1` [Example 60, (R)-2-(4-(1,1-Difluoropropyl)phenyl)-N-(4-(3-(methyl(1-phenylethyl)amino)pyrazin-2-yl)phenyl)acetamide], the inhibition at 1 µM was 69.6%, the inhibition at 10 µM came to 83% and the IC50 lay within 100 to 500 nM.
For the molecule `CCC(F)(F)c1ccc(CC(=O)Nc2ccc(-c3nccnc3OCc3c(C)noc3C)cc2)cc1` [Example 89, 2-(4-(1,1-Difluoropropyl)phenyl)-N-(4-(3-((3,5-dimethylisoxazol-4-yl)methoxy)pyrazin-2-yl)phenyl)acetamide], the inhibition at 1 µM worked out at 58.8% and the inhibition at 10 µM was determined as 74.6%.
For `Cc1ccc([C@@H](C)Oc2nccnc2-c2ccc(NC(=O)Cc3ccc(C(F)(F)C(C)O)cc3)cc2)c(Cl)c1` (stereo partly drawn) [Example 88, N-(4-(3-((R)-1-(2-Chloro-4-methylphenyl)ethoxy)pyrazin-2-yl)phenyl)-2-(4-(1,1-difluoro-2-hydroxypropyl)phenyl)acetamide], the inhibition at 1 µM was found to be 87.4%, the inhibition at 10 µM is 85.5% and the IC50 is < 50 nM.
As for `CC(O)C(F)(F)c1ccc(CC(=O)Nc2ccc(-c3cnn(C(C)(C)C)c3-c3ccc(F)cc3)cc2)cc1` (stereo not shown) [Example 22, N-(4-(1-(tert-Butyl)-5-(4-fluorophenyl)-1H-pyrazol-4-yl)phenyl)-2-(4-(1,1-difluoro-2-hydroxypropyl)phenyl)acetamide], the inhibition at 1 µM came to 46.7% and the inhibition at 10 µM turned out to be 56.2%.
For the molecule `CCC(F)(F)c1ccc(CC(=O)Nc2ccc(-c3nccnc3N[C@@H](C)c3ccccc3)cc2)cc1` [Example 61, (S)-2-(4-(1,1-Difluoropropyl)phenyl)-N-(4-(3-((1-phenylethyl)amino)pyrazin-2-yl)phenyl)acetamide], the inhibition at 1 µM worked out at 84.2%, the inhibition at 10 µM stood at 91.4% and the IC50 fell in the range of 50 to 100 nM.
